# Measured values published in PMC8158844 (ACS Omega, 2021).
# Marks after values point to notes of the source that are not given here.
# Key:
# [1] = Metabolic stability in porcine blood plasma; assay type: in vitro ADME; settings: for stability porcine blood plasma (percent of parent remaining): Table 3, 30 min, 37 °C, n = 3 unless otherwise stated; for metabolic stability porcine plasma (percent of parent remaining): Table 1, 30 min incubation, n = 3
# [2] = target: T1, FAAH (Rattus norvegicus, UniProt P97612); experiment: Inhibition of fatty acid amide hydrolase; assay type: biochemical
# T1 sequence (P97612 1-579): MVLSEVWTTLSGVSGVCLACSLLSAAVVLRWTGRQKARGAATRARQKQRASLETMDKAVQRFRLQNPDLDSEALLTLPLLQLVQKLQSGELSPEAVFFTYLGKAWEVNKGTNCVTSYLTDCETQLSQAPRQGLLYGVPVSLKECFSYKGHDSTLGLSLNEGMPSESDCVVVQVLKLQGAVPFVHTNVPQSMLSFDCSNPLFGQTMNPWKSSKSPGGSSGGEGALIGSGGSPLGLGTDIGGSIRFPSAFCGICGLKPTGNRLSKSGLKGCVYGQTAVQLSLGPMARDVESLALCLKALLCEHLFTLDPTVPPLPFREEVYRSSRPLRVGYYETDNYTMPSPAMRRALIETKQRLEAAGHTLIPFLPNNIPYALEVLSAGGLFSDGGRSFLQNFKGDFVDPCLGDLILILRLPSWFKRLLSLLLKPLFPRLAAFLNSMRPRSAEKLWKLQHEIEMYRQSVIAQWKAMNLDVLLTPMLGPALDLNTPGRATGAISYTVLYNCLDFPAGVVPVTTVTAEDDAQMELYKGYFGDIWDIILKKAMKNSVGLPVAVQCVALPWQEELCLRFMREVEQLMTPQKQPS
# [3] = Chemical stability in aqueous solution; assay type: physicochemical; settings: for stability in PBS buffer (percent of parent remaining): PBS buffer pH 7.4 with 0.2% Triton X-100, 60 min, 37 °C
# [4] = Metabolic stability in porcine liver S9 fraction; assay type: in vitro ADME; settings: 30 min; for stability porcine liver S9 fractions (percent of parent remaining): 37 °C, no NADPH added; for stability in the absence of BNNP (percent of parent remaining) / stability in the presence of BNNP (percent of parent remaining): porcine liver homogenate; for stability in the presence of BNNP (percent of parent remaining): carboxylesterase 1 inhibitor BNPP 1 mM
# [5] = target: porcine albumin (Sus scrofa, UniProt P08835); experiment: Stability in porcine albumin solution; assay type: in vitro ADME; settings: porcine albumin 17.5 mg/mL in PBS; 30 min, 37 °C
# porcine albumin, sequence (P08835 25-607): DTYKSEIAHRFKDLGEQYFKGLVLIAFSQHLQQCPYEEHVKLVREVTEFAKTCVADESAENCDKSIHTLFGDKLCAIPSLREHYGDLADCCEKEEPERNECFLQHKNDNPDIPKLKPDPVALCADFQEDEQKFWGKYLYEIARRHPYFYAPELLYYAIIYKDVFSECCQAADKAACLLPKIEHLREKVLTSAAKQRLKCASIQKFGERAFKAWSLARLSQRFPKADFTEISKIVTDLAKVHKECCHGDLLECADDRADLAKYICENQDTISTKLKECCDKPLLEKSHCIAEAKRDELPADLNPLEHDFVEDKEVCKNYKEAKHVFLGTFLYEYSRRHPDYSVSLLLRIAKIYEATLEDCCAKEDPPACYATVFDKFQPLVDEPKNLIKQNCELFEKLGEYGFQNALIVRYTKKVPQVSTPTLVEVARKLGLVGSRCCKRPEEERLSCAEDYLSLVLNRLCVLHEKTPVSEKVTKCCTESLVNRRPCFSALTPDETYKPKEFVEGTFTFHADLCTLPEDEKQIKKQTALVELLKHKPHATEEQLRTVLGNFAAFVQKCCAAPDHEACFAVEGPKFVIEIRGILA
# [6] = target: T2, human recombinant MAGL (Homo sapiens, UniProt Q99685); experiment: Inhibition of monoacylglycerol lipase; assay type: biochemical
# T2 sequence (Q99685 1-303): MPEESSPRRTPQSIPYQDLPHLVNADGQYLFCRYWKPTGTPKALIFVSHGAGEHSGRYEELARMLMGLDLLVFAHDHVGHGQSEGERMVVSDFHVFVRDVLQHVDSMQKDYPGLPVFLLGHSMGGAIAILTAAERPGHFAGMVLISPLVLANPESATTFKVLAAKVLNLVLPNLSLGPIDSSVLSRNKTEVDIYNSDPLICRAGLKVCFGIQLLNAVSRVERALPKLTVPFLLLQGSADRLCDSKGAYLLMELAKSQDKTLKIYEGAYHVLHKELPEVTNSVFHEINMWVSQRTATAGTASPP
# [7] = Metabolic stability in rat liver S9 fraction; assay type: in vitro ADME; settings: 30 min incubation in the presence of NADPH
compound,measurement,setting,value
"O=C(O)c1ccc(OC(=O)N2CCC(CCn3ccc4ccc(F)cc43)CC2)cc1 [Compound 54, 4-({4-[2-(6-Fluoroindol-1-yl)ethyl]piperidine-1-carbonyl}oxy)benzoic Acid]",stability porcine blood plasma (percent of parent remaining),[1],94 ± 3%
same,IC50,[2],15 nM
same,stability in PBS buffer (percent of parent remaining),[3],>95%
same,stability porcine liver S9 fractions (percent of parent remaining),[4],66 ± 9%
same,stability porcine albumin solution (percent of parent remaining),[5],93 ± 8%
O=C(O)c1ccccc1OC(=O)N1CCC(CCn2ccc3ccc(F)cc32)CC1 [Compound 58],stability porcine blood plasma (percent of parent remaining),[1],>95%
same,IC50,[2],3500 nM
same,stability in PBS buffer (percent of parent remaining),[3],>95%
same,stability porcine liver S9 fractions (percent of parent remaining),[4],72 ± 6%
same,stability porcine albumin solution (percent of parent remaining),[5],89 ± 6%
O=C(NCCCCCn1ccc2ccc(F)cc21)Oc1cccnc1 [Compound 44],stability porcine blood plasma (percent of parent remaining),[1],<5%
same,IC50,[2],2 nM
same,stability in PBS buffer (percent of parent remaining),[3],60 ± 2%
same,IC50,[6],170 nM
same,stability porcine liver S9 fractions (percent of parent remaining),[4],53 ± 7%
same,stability porcine albumin solution (percent of parent remaining),[5],27 ± 3%
O=C(NCCCCCn1ccc2ccc(F)cc21)Oc1cccc(C(=O)O)c1 [Compound 35],stability porcine blood plasma (percent of parent remaining),[1],78 ± 1%
same,IC50,[2],18 nM
same,stability in PBS buffer (percent of parent remaining),[3],>95%
same,IC50,[6],> 10000 nM
same,inhibition at 10 µM,[6]; read-out: MAGL inhibition at 10 μM,31%
same,stability porcine liver S9 fractions (percent of parent remaining),[4],74 ± 2%
same,stability porcine albumin solution (percent of parent remaining),[5],93 ± 3%
N#Cc1cccc(OC(=O)NCCCCCn2ccc3ccc(F)cc32)c1 [Compound 30],stability porcine blood plasma (percent of parent remaining),[1],< 5%
same,IC50,[2],8 nM
same,stability in PBS buffer (percent of parent remaining),[3],72 ± 3%
same,IC50,[6],380 nM
same,stability porcine liver S9 fractions (percent of parent remaining),[4],49 ± 4%
same,stability porcine albumin solution (percent of parent remaining),[5],<5%
"CCOC(=O)C1=C[C@@H](OC(CC)CC)[C@H](NC(C)=O)[C@@H](N)C1 [oseltamivir, reference compound]",stability in the absence of BNNP (percent of parent remaining),[4],11 ± 2%
same,stability in the presence of BNNP (percent of parent remaining),[4],97 ± 1%
O=C(NCCCCCCCn1ccc2ccc(F)cc21)Oc1ccccc1 [Compound 21],metabolic stability porcine plasma (percent of parent remaining),[1],34 ± 5%
same,IC50,[2],84 nM
same,metabolic stability rat liver S9 fraction (percent of parent remaining),[7],74 ± 11%
O=C(NCCCCCCn1ccc2ccc(F)cc21)Oc1ccccc1 [Compound 17],metabolic stability porcine plasma (percent of parent remaining),[1],55 ± 2%
same,IC50,[2],85 nM
same,metabolic stability rat liver S9 fraction (percent of parent remaining),[7],73 ± 2%
Cc1ccc(OC(=O)NCCCCCn2ccc3ccc(F)cc32)cn1 [Compound 48],stability porcine blood plasma (percent of parent remaining),[1],<5%
same,IC50,[2],4 nM
same,stability in PBS buffer (percent of parent remaining),[3],82 ± 6%
same,IC50,[6],310 nM
same,stability porcine liver S9 fractions (percent of parent remaining),[4],51 ± 9%
same,stability porcine albumin solution (percent of parent remaining),[5],62 ± 4%
Cc1ncccc1OC(=O)NCCCCCn1ccc2ccc(F)cc21 [Compound 45],stability porcine blood plasma (percent of parent remaining),[1],23 ± 6%
same,IC50,[2],10 nM
same,stability in PBS buffer (percent of parent remaining),[3],75 ± 4%
same,IC50,[6],140 nM
same,stability porcine liver S9 fractions (percent of parent remaining),[4],65 ± 9%
same,stability porcine albumin solution (percent of parent remaining),[5],70 ± 8%
"O=C(NCCCCCn1ccc2ccc(F)cc21)Oc1ccc(C(=O)O)cc1 [Compound 33, 4-({[5-(6-Fluoroindol-1-yl)pentyl]carbamoyl}oxy)benzoic Acid]",stability porcine blood plasma (percent of parent remaining),[1],37 ± 2%
same,IC50,[2],12 nM
same,stability in PBS buffer (percent of parent remaining),[3],>95%
same,IC50,[6],3300 nM
same,stability porcine liver S9 fractions (percent of parent remaining),[4],59 ± 6%
same,stability in the absence of BNNP (percent of parent remaining),[4],59 ± 6%
same,stability in the presence of BNNP (percent of parent remaining),[4],81 ± 8%
same,stability porcine albumin solution (percent of parent remaining),[5],90 ± 9%
"O=C(NCCCCCn1ccc2ccc(F)cc21)Oc1ccc(F)cc1 [Compound 26, 4-Fluorophenyl N-[5-(6-Fluoroindol-1-yl)pentyl]carbamate]",stability porcine blood plasma (percent of parent remaining),[1],59 ± 13^n = 6%
same,IC50,[2],49 nM
same,stability in PBS buffer (percent of parent remaining),[3],>95%
same,stability porcine liver S9 fractions (percent of parent remaining),[4],69 ± 4%
same,stability porcine albumin solution (percent of parent remaining),[5],91 ± 6^n = 5%
"N#Cc1ccc(OC(=O)NCCCCCn2ccc3ccc(F)cc32)cc1 [Compound 29, 4-Cyanophenyl N-[5-(6-Fluoroindol-1-yl)pentyl]carbamate]",stability in PBS buffer (percent of parent remaining),[3],12 ± 3%
same,cleavage in PBS buffer (pH 7.4) into the amine and 4-hydroxybenzonitrile,"[3]; after 30 min at 37 °C, HPLC/MS",nearly totally cleaved
"O=C(NCCCCCn1ccc2ccc(F)cc21)Oc1cccc2[nH]ccc12 [Compound 49, Indol-4-yl N-[5-(6-Fluoroindol-1-yl)pentyl]carbamate]",stability porcine blood plasma (percent of parent remaining),[1],80 ± 3%
same,IC50,[2],180 nM
same,decrease in FAAH inhibitory activity compared with compound 14,[2]; ratio of FAAH IC50 values,about 6 fold
same,stability in PBS buffer (percent of parent remaining),[3],>95%
same,stability porcine liver S9 fractions (percent of parent remaining),[4],78 ± 4%
same,stability porcine albumin solution (percent of parent remaining),[5],81 ± 6%
"O=C(OC(C(F)(F)F)C(F)(F)F)N1CCN(Cc2ccc(C(F)(F)F)cc2N2CCCC2)CC1 [ABX-1431 (2), reference compound]",metabolic stability porcine plasma (percent of parent remaining),[1],95 ± 2%
same,stability porcine blood plasma (percent of parent remaining),[1],95 ± 2%
same,stability in PBS buffer (percent of parent remaining),[3],90 ± 5%
same,metabolic stability rat liver S9 fraction (percent of parent remaining),[7],92 ± 2%
same,stability porcine liver S9 fractions (percent of parent remaining),[4],81 ± 3%
same,stability porcine albumin solution (percent of parent remaining),[5],87 ± 6%
N#Cc1ccccc1OC(=O)NCCCCCn1ccc2ccc(F)cc21 [Compound 31],stability in PBS buffer (percent of parent remaining),[3],3 ± 2%
O=C(O)c1cccc(OC(=O)N2CCC(CCn3ccc4ccc(F)cc43)CC2)c1 [Compound 56],stability porcine blood plasma (percent of parent remaining),[1],>95%
same,IC50,[2],27 nM
same,stability in PBS buffer (percent of parent remaining),[3],>95%
same,stability porcine liver S9 fractions (percent of parent remaining),[4],72 ± 7%
same,stability porcine albumin solution (percent of parent remaining),[5],94 ± 3%
"O=C(NCCCCCn1ccc2ccc(F)cc21)Oc1ccccc1C(=O)O [Compound 37, 2-({[5-(6-Fluoroindol-1-yl)pentyl]carbamoyl}oxy)benzoic Acid]",stability porcine blood plasma (percent of parent remaining),[1],28 ± 4%
same,IC50,[2],38 nM
same,stability in PBS buffer (percent of parent remaining),[3],73 ± 6%
same,IC50,[6],38 nM
same,factor by which MAGL activity exceeds reference inhibitor ABX-1431,[6]; ratio of MAGL IC50 values,15
same,stability porcine liver S9 fractions (percent of parent remaining),[4],77 ± 3%
same,stability porcine albumin solution (percent of parent remaining),[5],74 ± 2%
O=C(NCCCCn1ccc2ccc(F)cc21)Oc1ccccc1 [Compound 11],metabolic stability porcine plasma (percent of parent remaining),[1],74 ± 2%
same,IC50,[2],470 nM
same,metabolic stability rat liver S9 fraction (percent of parent remaining),[7],75 ± 6%
"O=C(NCCCCCCCCn1ccc2ccc(F)cc21)Oc1ccccc1 [Compound 25, Phenyl N-[8-(6-Fluoroindol-1-yl)octyl]carbamate]",metabolic stability porcine plasma (percent of parent remaining),[1],65 ± 2%
same,IC50,[2],130 nM
same,metabolic stability rat liver S9 fraction (percent of parent remaining),[7],74 ± 5%
